Test results from ChEMBL document CHEMBL1201862, “PubChem BioAssay data set” (2004).
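Following 48 hours of exposure in 96-well plates, responses at five concentrations were used to interpolate endpoints linearly. GI50 is the concentration that inhibits growth by half.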 Calls of active or inactive are those of the source. Rule as the data show it: active = GI50 up to about 1.1 µM and inactive = higher.

Tests used:
Test in all cases: DTP human tumour cell line panel, 48 h
A549 = tested on: A549
BT-549 = tested on: BT-549
CCRF-CEM = tested on: CCRF-CEM
DU-145 = tested on: DU-145
HOP-92 = tested on: HOP-92
Hs-578T = tested on: Hs-578T
M14 = tested on: M14
MOLT-4 = tested on: MOLT-4
NCI-H226 = tested on: NCI-H226
NCI-H23 = tested on: NCI-H23
OVCAR-3 = tested on: OVCAR-3
SF-295 = tested on: SF-295
SK-OV-3 = tested on: SK-OV-3
TK-10 = tested on: TK-10
U-251 = tested on: U-251
UACC-62 = tested on: UACC-62
CAKI-1 = tested on: CAKI-1
HOP-62 = tested on: HOP-62
SK-MEL-28 = tested on: SK-MEL-28
A498 = tested on: A498

Measured: GI50

CCOC(=O)c1c(-c2ccccc2)c(-c2ccccc2)cn1C
inactive: A549 > 10 µM | BT-549 > 10 µM | CCRF-CEM > 10 µM | DU-145 8.95 µM | HOP-92 > 10 µM | Hs-578T 4.92 µM | M14 > 10 µM | MOLT-4 > 10 µM | NCI-H226 > 10 µM | NCI-H23 > 10 µM | OVCAR-3 > 10 µM | SF-295 > 10 µM | SK-OV-3 > 10 µM | TK-10 > 10 µM | U-251 > 10 µM | UACC-62 > 10 µM

CN1CN(c2ccccc2)C2(CCN(CCCCCCF)CC2)C1=O
inactive: A549 57.7 µM | BT-549 3.41 µM | CAKI-1 41.9 µM | CCRF-CEM 37.9 µM | DU-145 44.1 µM | HOP-62 31.1 µM | M14 73.5 µM | MOLT-4 48.9 µM | NCI-H226 > 100 µM | NCI-H23 94 µM | OVCAR-3 > 100 µM | SF-295 82 µM | SK-MEL-28 > 100 µM | SK-OV-3 > 100 µM | TK-10 65.8 µM | U-251 97.1 µM | UACC-62 90.2 µM

CCOC(=O)NC(C(F)(F)F)(C(F)(F)F)P(=O)(OC(C)C)OC(C)C
inactive: A549 > 100 µM | BT-549 > 100 µM | CCRF-CEM > 100 µM | DU-145 > 100 µM | HOP-62 > 100 µM | Hs-578T > 100 µM | MOLT-4 > 100 µM | NCI-H226 58.7 µM | NCI-H23 > 100 µM | OVCAR-3 > 100 µM | SF-295 > 100 µM | SK-MEL-28 > 100 µM | SK-OV-3 > 100 µM | TK-10 > 100 µM | U-251 > 100 µM | UACC-62 > 100 µM

CN(C)CCN1C(=O)c2ccccc2C1(O)c1ccc(Cl)cc1 (configuration not stated)
inactive: A549 > 100 µM | BT-549 > 100 µM | CAKI-1 40.8 µM | CCRF-CEM 32.4 µM | DU-145 > 100 µM | HOP-62 > 100 µM | Hs-578T 74 µM | M14 42.9 µM | MOLT-4 39.3 µM | NCI-H226 66.7 µM | NCI-H23 > 100 µM | OVCAR-3 > 100 µM | SF-295 > 100 µM | SK-MEL-28 37.8 µM | SK-OV-3 > 100 µM | TK-10 > 100 µM | U-251 99.1 µM | UACC-62 32.7 µM

CCC1(O)CC(CCN(Cc2ccccc2)C(=O)OCc2ccccc2)C(OCc2ccccc2)C1O (configuration not stated)
inactive: A549 9.93 µM | BT-549 13 µM | CAKI-1 25.3 µM | CCRF-CEM 16.1 µM | DU-145 18.5 µM | HOP-62 14.5 µM | M14 15.5 µM | MOLT-4 1.93 µM | NCI-H226 10.7 µM | NCI-H23 14 µM | OVCAR-3 13 µM | SF-295 11.1 µM | SK-MEL-28 15.7 µM | SK-OV-3 17.4 µM | TK-10 16.5 µM | U-251 27.9 µM | UACC-62 12.9 µM

Oc1cccc(-c2ccc3c4c2O[C@H]2c5[nH]c6ccccc6c5C[C@@]5(O)[C@@H](C3)N(CC3CC3)CC[C@]425)c1
inactive: A549 1.78 µM | BT-549 10 µM | CAKI-1 1.75 µM | CCRF-CEM 1.9 µM | DU-145 1.87 µM | HOP-92 2.13 µM | Hs-578T 1.74 µM | M14 1.7 µM | NCI-H226 3.75 µM | NCI-H23 2.3 µM | OVCAR-3 2 µM | SF-295 1.82 µM | TK-10 2.24 µM

Nc1c(C(=O)c2ccccc2)nnc2ccccc12
inactive: A549 37.3 µM | BT-549 18.7 µM | CAKI-1 29.5 µM | DU-145 23.4 µM | HOP-62 24.5 µM | HOP-92 18.8 µM | M14 39.3 µM | MOLT-4 36.1 µM | NCI-H226 30.4 µM | NCI-H23 24.8 µM | SK-MEL-28 43.9 µM | TK-10 24.3 µM | U-251 34.5 µM | UACC-62 17.5 µM

COc1ccc(/N=C2/SC(=N/N=c3\sc4ccccc4n3C)S/C2=N/c2ccc(OC)cc2)cc1
inactive: A549 20.4 µM | BT-549 67.9 µM | CAKI-1 > 100 µM | DU-145 > 100 µM | HOP-62 31.6 µM | HOP-92 89.1 µM | Hs-578T 36.2 µM | M14 > 100 µM | MOLT-4 13.1 µM | NCI-H226 49 µM | NCI-H23 41.9 µM | OVCAR-3 > 100 µM | SF-295 51.8 µM | SK-MEL-28 > 100 µM | SK-OV-3 76.7 µM | TK-10 > 100 µM | U-251 55.5 µM | UACC-62 37.6 µM

CCN(CC)c1ccc(C2SCC(=O)N2c2ccc(NC(=O)c3ccc(N4C(=O)CSC4c4ccc(N(CC)CC)cc4)cc3)cc2)cc1 (configuration not stated)
inactive: A549 > 100 µM | BT-549 > 100 µM | CAKI-1 > 100 µM | CCRF-CEM 35.5 µM | DU-145 > 100 µM | HOP-62 89.7 µM | HOP-92 > 100 µM | Hs-578T > 100 µM | M14 > 100 µM | MOLT-4 29.7 µM | NCI-H23 > 100 µM | OVCAR-3 71.4 µM | SF-295 30.1 µM | SK-MEL-28 > 100 µM | SK-OV-3 > 100 µM | TK-10 > 100 µM | U-251 > 100 µM | UACC-62 > 100 µM

O=S(=O)(O)CCSSCCS(=O)(=O)O
inactive: A498 > 1000 µM | A549 > 1000 µM | BT-549 > 1000 µM | CAKI-1 > 1000 µM | CCRF-CEM > 1000 µM | DU-145 > 1000 µM | HOP-62 > 1000 µM | HOP-92 > 1000 µM | M14 > 1000 µM | MOLT-4 > 1000 µM | NCI-H226 > 1000 µM | NCI-H23 > 1000 µM | OVCAR-3 > 1000 µM | SF-295 > 1000 µM | SK-MEL-28 > 1000 µM | SK-OV-3 > 1000 µM | TK-10 > 1000 µM | U-251 > 1000 µM | UACC-62 > 1000 µM

C=C1C(O)CC[C@]2(C)C1C1OC(C)(C)O[C@]13CC(=O)C(C)=C([C@H]1OC(C)(C)OC12)C3(C)C (some centres not stated)
inactive: A498 23.1 µM | A549 > 100 µM | BT-549 > 100 µM | CAKI-1 > 100 µM | CCRF-CEM > 100 µM | DU-145 > 100 µM | HOP-62 > 100 µM | MOLT-4 58.6 µM | NCI-H226 > 100 µM | NCI-H23 > 100 µM | OVCAR-3 > 100 µM | SF-295 > 100 µM | SK-MEL-28 > 100 µM | SK-OV-3 > 100 µM | TK-10 > 100 µM | U-251 > 100 µM | UACC-62 > 100 µM

Cc1ccc(S(=O)(=O)n2cc(-c3cc(C(F)(F)F)ccn3)c3cc(Br)ccc32)cc1
inactive: A498 18.2 µM | A549 21.1 µM | CAKI-1 16.3 µM | CCRF-CEM > 100 µM | DU-145 17.9 µM | HOP-62 11.8 µM | HOP-92 13.7 µM | Hs-578T 15 µM | M14 27.7 µM | MOLT-4 > 100 µM | NCI-H226 19 µM | NCI-H23 14.5 µM | OVCAR-3 12.2 µM | SF-295 17.9 µM | SK-MEL-28 20.7 µM | SK-OV-3 15.5 µM | TK-10 18.7 µM | U-251 15.5 µM | UACC-62 16.1 µM
